Results on 18 compounds are retold here after paper PMC10608790, “Structural Diversity and Biological Activity of Cyanopeptolins Produced by Nostoc edaphicum CCNP1411” (Marine Drugs, 2023).

Like-named read-outs stand apart in the source and are kept apart here.

The target of series [1] is T1, elastase (Sus scrofa, UniProt P00772). As to the kind of experiment: Elastase inhibition assay. It counts as biochemical. Conditions: for IC50: read-out: E (elastase) IC50; for E (elastase) inhibition class: class symbol instead of IC50. On the procedure:
(§1) The enzyme inhibitory activity of cyanopeptolins was assayed against trypsin [108], chymotrypsin, thrombin [109], and elastase as described before. In brief, the samples were prepared and serially diluted (1 mg, 1:1—1:10,000 times) in 1% DMSO; the standard inhibitors: aprotinin (trypsin and chymotrypsin) AEBSF 4-(2-aminoethyl)benzenesulfonyl fluoride hydrochloride (thrombin), elastatinal (elastase) (all from Sigma Aldrich; St. Louis, MO, USA) were also prepared in 1% DMSO. DMSO (1%) without the addition of the enzyme served as a negative control. All tests were carried out in triplicates. After the incubation of the assay mixtures, the absorbances were measured at 405 nm (Varioskan Flash Thermo Fisher Scientific OY, Vantaa, Finland). The reduction in enzyme activity greater than 50% was considered as significant.

For another series, the target named is thrombin (Homo sapiens, UniProt P00734). As to the kind of experiment: Thrombin inhibition assay. It counts as biochemical. Conditions: highest concentration in the assay 45 µg × mL−1. On the procedure: as §1
The subject of series [2] is human cervical cancer (HeLa) cell line. As to the kind of experiment: MTT assay on HeLa cells. The format is cell-based. Conditions: 200 µg × mL−1, 24 h. On the procedure: The cytotoxic activity of the selected 17 CPs against the HeLa cervical cancer cell line (Merck KGaA, Darmstadt, Germany) was assessed with the MTT (3-(4,5-dimethylthiazole-2-yl)-2,5-diphenyltetrazolium bromide) assay according to Felczykowska et al.. HeLa cells were seeded at 4 × 10^3 cells per well in DMEM medium (Merck KGaA) supplemented with 10% (v/v) fetal bovine serum (Merck KGaA) and penicillin-streptomycin solution (1% v/v, stock solution 50 u and 0.05 mg × mL^−1, respectively; Merck KGaA). Cells were allowed to attach overnight, and then the tested compounds prepared in 1% DMSO were added. After incubation (24 h), 25 µL of MTT solution (4 mg × mL^−1; Merck KGaA) were added and then the samples were incubated for another 4 h. The formazan crystals were dissolved with 100% DMSO and absorbance was measured with Spectramax i3 (Molecular Deviecs, LLC San Jose, CA, USA). The reduction in cell viability greater than 60% was considered as significant.

Another series has as its system breast cancer cell line. On the set-up: method as in PMID 29949853. Conditions: up to 500 µg × mL−1; cited from earlier work.
For another series, the system named is breast cancer cells. On the set-up: method as in PMID 29405541. Conditions: cited from earlier work.
Another series concerns H-460 lung cancer cells. On the set-up: method as in PMID 18163584. Conditions: cited from earlier work.
Series [3] concerns neuro-2a neuroblastoma cells. On the set-up: method as in PMID 18163584. Conditions: cited from earlier work.
Series [4] has as its system KB human epithelial carcinoma cells. On the set-up: method as in PMID 12762794. Conditions: cited from earlier work.
For a further series, the system named is enzymes. Set-up: method as in PMID 20028081. Conditions: cited from earlier work.
The target of a further series is chymotrypsin (Bos taurus, UniProt P00766). As to the kind of experiment: Chymotrypsin inhibition assay. The format is biochemical. Conditions: class symbol instead of IC50. On the procedure:
as §1, with “In” for “The enzyme inhibitory activity of cyanopeptolins was assayed against trypsin [108], chymotrypsin, thrombin [109], and elastase as described before. In”

The target of the next series is T2, trypsin (Bos taurus, UniProt P00760).
T2 sequence (P00760 24-246): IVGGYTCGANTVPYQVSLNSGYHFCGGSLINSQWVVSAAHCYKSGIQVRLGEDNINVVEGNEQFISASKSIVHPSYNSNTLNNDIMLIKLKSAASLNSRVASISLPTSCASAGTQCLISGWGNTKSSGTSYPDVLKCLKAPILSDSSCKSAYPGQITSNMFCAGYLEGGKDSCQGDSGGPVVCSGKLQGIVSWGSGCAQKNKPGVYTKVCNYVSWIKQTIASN
As to the kind of experiment: Trypsin inhibition assay. Conditions: for activity against serine proteases (in words): Arg2-containing CPs lacking the side-chain, Table 1 enzymes; for TRY (trypsin) inhibition class: class symbol instead of IC50. The format is biochemical. On the procedure: as §1

In another series the test system is HeLa S3 cells. On the set-up: method as in doi:10.1016/j.tet.2019.04.046. Conditions: cited from earlier work.
Series [5] has as its target T1, elastase. On the set-up: method as in doi:10.1016/j.tet.2019.04.046. Conditions: cited from earlier work.

As a reminder, the IC50 is the concentration at which inhibition is half-maximal.

T1 sequence (P00772 27-266): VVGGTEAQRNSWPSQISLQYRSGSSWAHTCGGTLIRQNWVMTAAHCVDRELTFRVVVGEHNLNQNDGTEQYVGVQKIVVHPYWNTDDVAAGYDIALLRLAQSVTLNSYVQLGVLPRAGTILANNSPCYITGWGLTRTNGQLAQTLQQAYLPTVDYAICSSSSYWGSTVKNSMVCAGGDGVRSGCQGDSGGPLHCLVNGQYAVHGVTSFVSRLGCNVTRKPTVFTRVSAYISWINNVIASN

With `CCCC(=O)NC(CC(=O)O)C(=O)NC1C(=O)NC(CC(C)C)C(=O)NC2CCC(O)N(C2=O)C(Cc2ccccc2)C(=O)N(C)C(Cc2ccccc2)C(=O)NC(C(C)C)C(=O)OC1C` (stereo not drawn) [CP 919, [Thr + Leu + Ahp + Phe + MePhe + Val]Asp + BA], at elastase [1], the IC50 was 5.71 µM. Moreover, the “TRB (thrombin) inhibition class” value at thrombin is on record as “− (not active (inhibition below 50%))”. For the same compound, in series [2], the “reduction in cell viability versus control” value came out at 97.6%.
Take `CC(=O)NC(CC(=O)O)C(=O)NC1C(=O)NC(Cc2ccc(O)cc2)C(=O)NC2CCC(O)N(C2=O)C(Cc2ccccc2)C(=O)N(C)C(Cc2ccccc2)C(=O)NC(C(C)C)C(=O)OC1C` (stereo not drawn) [CP 941, [Thr + Tyr + Ahp + Phe + MePhe + Val]Asp + Ac]: at elastase [1], the “E (elastase) inhibition class” value was “− (not active (inhibition below 50%))”. In addition, on thrombin, the “TRB (thrombin) inhibition class” value is reported as “− (not active (inhibition below 50%))”.
`CCCC(=O)NC(CC(=O)O)C(=O)NC1C(=O)NC(CC(C)C)C(=O)NC2CCC(O)N(C2=O)C(Cc2ccccc2)C(=O)N(C)C(Cc2ccc(OC)cc2)C(=O)NC(C(C)C)C(=O)OC1C` (stereo not drawn) [CP 949, [Thr + Leu + Ahp + Phe + diMeTyr + Val]Asp + BA]: at elastase [1], the IC50 is 3.32 µM. Further, the “TRB (thrombin) inhibition class” value at thrombin is given as “− (not active (inhibition below 50%))”. In addition, the “reduction in cell viability versus control” value in series [2] amounted to 71.5%.
In the case of `CCCC(=O)N[C@@H](CC(=O)O)C(=O)N[C@@H]1C(=O)N[C@@H](CCCNC(=N)N)C(=O)N[C@H]2CC[C@@H](O)N(C2=O)[C@@H](Cc2ccccc2)C(=O)N(C)[C@@H](Cc2ccccc2)C(=O)N[C@@H](C(C)C)C(=O)O[C@@H]1C` [CP 962, [Thr + Arg + Ahp + Phe + MePhe + Val]Asp + BA], in the series with breast cancer cell line, the “cytotoxic activity (in words)” value is given as “no effects were observed”.
For the compound `CCCC(=O)NC(CC(=O)O)C(=O)NC1C(=O)NC(Cc2ccccc2)C(=O)NC2CCC(O)N(C2=O)C(Cc2ccccc2)C(=O)N(C)C(Cc2ccc(OC)cc2)C(=O)NC(C(C)C)C(=O)OC1C` (stereo not drawn) [CP 983, [Thr + Phe + Ahp + Phe + diMeTyr + Val]Asp + BA], at elastase [1], the “E (elastase) inhibition class” value is “− (not active (inhibition below 50%))”. Further, the “TRB (thrombin) inhibition class” value on thrombin is reported as “− (not active (inhibition below 50%))”.
On to `CCCC(=O)N[C@@H](CC(=O)O)C(=O)N[C@@H]1C(=O)N[C@@H](Cc2ccc(O)cc2)C(=O)N[C@H]2CC[C@@H](O)N(C2=O)[C@@H](Cc2ccccc2)C(=O)N(C)[C@@H](Cc2ccc(O)cc2)C(=O)N[C@@H](C(C)C)C(=O)O[C@@H]1C` [CP 985, [Thr + Tyr + Ahp + Phe + MeTyr + Val]Asp + BA], for which the “cytotoxic activity (in words)” value with breast cancer cell line was “no effects were observed”.
For `CCCCCC(=O)NC(CC(=O)O)C(=O)NC1C(=O)NC(CCCNC(=N)N)C(=O)NC2CCC(O)N(C2=O)C(Cc2ccccc2)C(=O)N(C)C(Cc2ccccc2)C(=O)NC(C(C)C)C(=O)OC1C` (stereo not drawn) [CP 990, [Thr + Arg + Ahp + Phe + MePhe + Val]Asp + HA], the “E (elastase) inhibition class” value on elastase [1] is recorded as “− (not active (inhibition below 50%))”. Moreover, at thrombin, the “TRB (thrombin) inhibition class” value is on record as “− (not active (inhibition below 50%))”.
For `CCCC(=O)NC(CC(=O)O)C(=O)NC1C(=O)NC(Cc2ccc(O)cc2)C(=O)NC2CCC(O)N(C2=O)C(Cc2ccccc2)C(=O)N(C)C(Cc2ccc(OC)cc2)C(=O)NC(C(C)C)C(=O)OC1C` (stereo not drawn) [CP 999, [Thr + Tyr + Ahp + Phe + diMeTyr + Val]Asp + BA], at elastase [1], the “E (elastase) inhibition class” value is reported as “− (not active (inhibition below 50%))”. The “TRB (thrombin) inhibition class” value on thrombin was “− (not active (inhibition below 50%))”.
As to `C/C=C1\NC(=O)[C@@H](NC(=O)[C@@H](NC(=O)[C@H](C)NC(=O)CCC)[C@@H](C)O)[C@@H](C)OC(=O)[C@H](C(C)C)NC(=O)[C@H](Cc2ccc(O)cc2)N(C)C(=O)[C@H](Cc2ccccc2)N2C(=O)[C@H](CC[C@H]2O)NC1=O` [molassamide], the “effect on elastase-mediated migration (in words)” value in the series on breast cancer cells is “inhibiting”.
`CCCC(=O)N[C@@H](CCC(N)=O)C(=O)N[C@@H]1C(=O)N[C@@H](CCCNC(N)=O)C(=O)N[C@H]2CC[C@@H](O)N(C2=O)[C@@H]([C@@H](C)CC)C(=O)N(C)[C@@H](Cc2ccc(OC)c(Br)c2)C(=O)N[C@@H](C(C)C)C(=O)O[C@@H]1C` [symplocamide A]: the “cytotoxic effect (in words)” value (in the series on H-460 lung cancer cells; in series [3]) was “affected” in each case.
With `CCCC(=O)N[C@H](C(=O)N[C@@H]1C(=O)N[C@@H](CC(C)C)C(=O)N[C@H]2CC[C@@H](O)N(C2=O)[C@@H](CC(C)C)C(=O)N(C)[C@@H](Cc2ccccc2)C(=O)N[C@@H](C(C)C)C(=O)O[C@@H]1C)C(C)C` [tasipeptin A], the “cytotoxic effect (in words)” value in series [4] is reported as “cytotoxic”.
For `CCCC(=O)N[C@@H]1C(=O)N[C@@H](CC(C)C)C(=O)N[C@H]2CC[C@@H](O)N(C2=O)[C@@H](CC(C)C)C(=O)N(C)[C@@H](Cc2ccccc2)C(=O)N[C@@H](C(C)C)C(=O)O[C@@H]1C` [tasipeptin B], the “cytotoxic effect (in words)” value in series [4] was “cytotoxic”.
Take Micropeptin MZ771: in the series with enzymes, the “effect on the activity of enzymes (in words)” value is given as “did not affect the activity of enzymes”.
In the case of “[Thr + Arg + Ahp + Phe + MePhe + Val] [CP 778]”, at chymotrypsin, the “CHY (chymotrypsin) inhibition class” value is listed as “− (not active (inhibition below 50%))”. Moreover, at trypsin, the “activity against serine proteases (in words)” value is “not active” and the “TRY (trypsin) inhibition class” value is given as “− (not active (inhibition below 50%))”. The “E (elastase) inhibition class” value at elastase [1] is on record as “− (not active (inhibition below 50%))”. At thrombin, the “TRB (thrombin) inhibition class” value was “− (not active (inhibition below 50%))”.
On to “[Thr + Arg + Ahp + Phe + diMeTyr + Val] [CP 809]”, for which the “CHY (chymotrypsin) inhibition class” value at chymotrypsin was “− (not active (inhibition below 50%))”. Further, on trypsin, the “activity against serine proteases (in words)” value was “not active” and the “TRY (trypsin) inhibition class” value is “− (not active (inhibition below 50%))”. Moreover, the “E (elastase) inhibition class” value on elastase [1] was “− (not active (inhibition below 50%))”. On thrombin, the “TRB (thrombin) inhibition class” value is reported as “− (not active (inhibition below 50%))”.
Take “[Thr + Phe + Ahp + Phe + diMeTyr + Val]Asp + HA [CP 1011]”: on chymotrypsin, the “CHY (chymotrypsin) inhibition class” value is “− (not active (inhibition below 50%))”. The “TRY (trypsin) inhibition class” value at trypsin is given as “− (not active (inhibition below 50%))”. Besides, at elastase [1], the “E (elastase) inhibition class” value is reported as “− (not active (inhibition below 50%))”. The “TRB (thrombin) inhibition class” value on thrombin is “− (not active (inhibition below 50%))”.
For “[Thr + Tyr + Ahp + Phe + MePhe + Val]Asp + OA [CP 1025]”, the “CHY (chymotrypsin) inhibition class” value at chymotrypsin is “+/− (low activity (inhibition between 50 and 60%))”. Also, the “TRY (trypsin) inhibition class” value at trypsin is reported as “− (not active (inhibition below 50%))”. Moreover, the “E (elastase) inhibition class” value on elastase [1] is on record as “− (not active (inhibition below 50%))”. The “TRB (thrombin) inhibition class” value at thrombin is reported as “− (not active (inhibition below 50%))”.
Regarding kyanamide, the “cytotoxic effect (in words)” value with HeLa S3 cells is “moderately cytotoxic”. Besides, the IC50 on elastase [5] is 0.00013 µM.
